Read-outs that look alike come from different tables or passages of the source.
Tests used:
[1] = test system: maximal electroshock-induced seizures; experiment: Maximal electroshock-induced seizures (MES); assay type: in vivo, mice; settings: for ED50: Mus musculus, mice, tonic hindlimb extensor response, corneal electrodes 50 mA; for activity against maximal electroshock (MES): statement in words, refers to Table 3
Description: Maximal Electroshock-induced Seizures
Seizures were induced by application of current (50 mA, 60 pulses/sec, 0.8 sec pulse width, 1 sec duration, d.c.) through saline-coated corneal electrodes using a Ugo Basile ECT device (Model 7801). […] A tonic seizure was defined as a hindlimb extension in excess of 90 degrees from the plane of the body. Results were treated in a quantal manner.

NR1A/NR2A NMDA receptor = NR1A/NR2A NMDA receptor (Rattus norvegicus, UniProt P35439+Q00959); experiment: Electrophysiological assay, cloned NMDA receptor subunits expressed in Xenopus oocytes (1A/2A); assay type: cell-based
Chain of NR1A/NR2A NMDA receptor (Q00959 20-1464 limits assumed, other chains not shown): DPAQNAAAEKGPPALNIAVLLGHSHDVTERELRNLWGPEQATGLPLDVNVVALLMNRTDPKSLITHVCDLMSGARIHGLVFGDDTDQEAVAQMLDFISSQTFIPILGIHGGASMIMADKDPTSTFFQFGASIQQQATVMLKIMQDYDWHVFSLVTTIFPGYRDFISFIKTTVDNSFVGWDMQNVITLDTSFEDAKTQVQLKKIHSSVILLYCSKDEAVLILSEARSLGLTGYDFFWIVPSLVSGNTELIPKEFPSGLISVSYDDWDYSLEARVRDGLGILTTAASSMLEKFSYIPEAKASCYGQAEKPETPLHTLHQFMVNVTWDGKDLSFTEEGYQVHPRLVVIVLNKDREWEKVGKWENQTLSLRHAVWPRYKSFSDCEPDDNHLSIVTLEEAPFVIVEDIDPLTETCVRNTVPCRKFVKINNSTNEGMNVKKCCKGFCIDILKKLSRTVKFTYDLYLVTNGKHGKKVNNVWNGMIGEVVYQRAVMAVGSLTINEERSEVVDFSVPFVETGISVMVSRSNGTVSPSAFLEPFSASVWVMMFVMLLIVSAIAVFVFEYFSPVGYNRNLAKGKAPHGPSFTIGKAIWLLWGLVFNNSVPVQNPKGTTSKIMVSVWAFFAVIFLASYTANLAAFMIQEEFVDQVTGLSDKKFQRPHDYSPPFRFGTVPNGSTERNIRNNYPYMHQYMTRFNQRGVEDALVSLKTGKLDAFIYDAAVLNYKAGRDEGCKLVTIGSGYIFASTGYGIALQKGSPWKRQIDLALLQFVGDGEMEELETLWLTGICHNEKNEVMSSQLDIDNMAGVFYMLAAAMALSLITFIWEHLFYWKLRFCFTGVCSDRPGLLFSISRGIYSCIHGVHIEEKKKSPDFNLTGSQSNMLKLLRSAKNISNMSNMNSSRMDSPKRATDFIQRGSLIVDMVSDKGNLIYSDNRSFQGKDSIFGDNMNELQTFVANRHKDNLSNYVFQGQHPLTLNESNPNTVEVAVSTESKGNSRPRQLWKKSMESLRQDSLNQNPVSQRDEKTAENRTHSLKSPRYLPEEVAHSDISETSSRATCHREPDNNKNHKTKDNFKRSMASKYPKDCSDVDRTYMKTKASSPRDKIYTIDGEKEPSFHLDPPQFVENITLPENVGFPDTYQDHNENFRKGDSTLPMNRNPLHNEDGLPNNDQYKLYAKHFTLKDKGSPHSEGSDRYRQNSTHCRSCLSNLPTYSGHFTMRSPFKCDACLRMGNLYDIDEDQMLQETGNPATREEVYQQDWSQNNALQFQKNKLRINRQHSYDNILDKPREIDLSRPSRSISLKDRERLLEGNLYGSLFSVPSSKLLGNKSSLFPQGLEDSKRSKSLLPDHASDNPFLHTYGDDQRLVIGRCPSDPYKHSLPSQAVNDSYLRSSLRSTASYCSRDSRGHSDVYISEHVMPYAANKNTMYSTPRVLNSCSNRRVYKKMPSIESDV
Description: (§1) Electrophysiological Assays at NMDA Receptor Subunits
(§2) cDNA clones encoding the NR1A, NR2A, NR2B, NR2C and NR2D rat NMDA receptor subtypes were provided by Dr. P. H. Seeburg (see, Moriyoshi et al., Nature (Lond.) 354:31-37 (1991); Kutsuwada et al., Nature (Lond.) 358:36-41 (1992) Monyer et al., Science (Washington, D.C.) 256:1217-1221 (1992); Ikeda et al., FEBS Lett. 313:34-38 (1992); Ishii et al., J. Biol. Chem. 268:2836-2843 (1993) for details of these clones or their mouse homologs). The clones were transformed into appropriate host bacteria and plasmid preparations were made with conventional DNA purification techniques. […]
(§3) Electrical recordings were made using a conventional two-electrode voltage clamp (Dagan TEV-200) over periods ranging between 3-21 days following injection. […] Inhibitory potency of the novel antagonists was assessed on responses elicited by fixed concentrations of glutamate and glycine, by measuring reductions in current induced by progressively increasing concentrations of antagonist. […]
(§4) in which Icontrol is the current evoked by agonists alone, pIC50=−log IC50, IC50 is the concentration of antagonist that produces half maximal inhibition, and n is the slope factor. […] For incomplete curves analysis by fitting was unreliable and IC50 values were calculated by simple regression over linear portions of the curves (Origin: Microcal Software).

NR1A/NR2B NMDA receptor = NR1A/NR2B NMDA receptor (Rattus norvegicus, UniProt P35439+Q00960); experiment: Electrophysiological assay, cloned NMDA receptor subunits expressed in Xenopus oocytes (1A/2B); assay type: cell-based
Chain of NR1A/NR2B NMDA receptor (Q00960 27-1482, other chains not shown): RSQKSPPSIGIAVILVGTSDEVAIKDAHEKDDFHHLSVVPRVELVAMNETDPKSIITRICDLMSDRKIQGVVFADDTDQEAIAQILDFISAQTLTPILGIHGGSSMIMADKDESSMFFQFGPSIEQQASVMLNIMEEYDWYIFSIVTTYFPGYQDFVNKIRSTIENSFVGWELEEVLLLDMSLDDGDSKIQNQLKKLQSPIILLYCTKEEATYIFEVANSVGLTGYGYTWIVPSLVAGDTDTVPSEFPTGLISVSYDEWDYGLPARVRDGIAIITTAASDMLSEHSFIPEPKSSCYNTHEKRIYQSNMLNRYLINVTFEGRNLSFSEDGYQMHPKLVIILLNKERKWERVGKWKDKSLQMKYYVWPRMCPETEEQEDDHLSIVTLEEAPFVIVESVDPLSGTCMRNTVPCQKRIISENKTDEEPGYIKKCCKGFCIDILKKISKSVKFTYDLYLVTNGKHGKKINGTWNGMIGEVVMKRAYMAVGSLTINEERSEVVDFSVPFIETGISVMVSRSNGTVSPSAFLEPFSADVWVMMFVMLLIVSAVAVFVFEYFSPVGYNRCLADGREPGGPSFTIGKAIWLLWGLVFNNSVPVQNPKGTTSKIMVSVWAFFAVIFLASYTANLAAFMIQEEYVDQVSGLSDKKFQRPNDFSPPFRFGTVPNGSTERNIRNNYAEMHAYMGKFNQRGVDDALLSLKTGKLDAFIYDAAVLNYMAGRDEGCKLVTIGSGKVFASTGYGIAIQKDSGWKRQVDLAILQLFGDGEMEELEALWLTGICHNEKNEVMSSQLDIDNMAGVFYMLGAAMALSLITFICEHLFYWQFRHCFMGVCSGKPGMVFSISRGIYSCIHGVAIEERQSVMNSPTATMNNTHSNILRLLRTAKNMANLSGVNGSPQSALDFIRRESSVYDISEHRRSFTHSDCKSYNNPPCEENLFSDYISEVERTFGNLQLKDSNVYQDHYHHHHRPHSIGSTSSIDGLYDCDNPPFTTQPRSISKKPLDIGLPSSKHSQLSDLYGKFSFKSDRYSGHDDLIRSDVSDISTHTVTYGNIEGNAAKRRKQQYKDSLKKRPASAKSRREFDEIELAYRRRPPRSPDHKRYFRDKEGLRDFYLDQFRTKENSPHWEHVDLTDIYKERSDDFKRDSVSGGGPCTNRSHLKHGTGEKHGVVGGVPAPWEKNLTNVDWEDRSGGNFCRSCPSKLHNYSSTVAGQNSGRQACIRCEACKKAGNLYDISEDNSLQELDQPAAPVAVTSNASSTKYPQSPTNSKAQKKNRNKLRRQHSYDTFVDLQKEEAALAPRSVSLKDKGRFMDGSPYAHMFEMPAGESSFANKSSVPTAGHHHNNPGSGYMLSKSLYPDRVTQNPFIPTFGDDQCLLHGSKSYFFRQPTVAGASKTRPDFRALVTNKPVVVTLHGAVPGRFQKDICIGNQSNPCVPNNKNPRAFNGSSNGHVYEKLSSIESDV
Description: as §1
cDNA clones encoding the NR1A, NR2A, NR2B, NR2C and NR2D rat NMDA receptor subtypes were provided by Dr. P. H. Seeburg (see, Moriyoshi et al., Nature (Lond.) 354:31-37 (1991); Kutsuwada et al., Nature (Lond.) 358:36-41 (1992) Monyer et al., Science (Washington, D.C.) 256:1217-1221 (1992); Ikeda et al., FEBS Lett. 313:34-38 (1992); Ishii et al., J. Biol. Chem. 268:2836-2843 (1993) for details of these clones or their mouse homologs). The clones were transformed into appropriate host bacteria and plasmid preparations were made with conventional DNA purification techniques. A sample of each clone was linearized by restriction enzyme digestion and cRNA was synthesized with T3 RNA polymerase. The CRNA was diluted to 400 ng/μl and stored in 1 μl aliquots at −80° C. until injection.
Mature female Xenopus laevis were anaesthetized (20-40 min) using 0.15% 3-aminobenzoic acid ethyl ester (MS-222) and 2-4 ovarian lobes were surgically removed. Oocytes at developmental stages IV-VI (Dumont, J. N., J. Morphol. 136:153-180 (1972)), were dissected from the ovary still surrounded by enveloping ovarian tissues. Follicle-enclosed oocytes were micro-injected with 1:1 mixtures of cRNA:NR1A+NR2A, 2B, 2C or 2D; injecting ˜2,5, or 20 ng of RNA encoding each receptor subunit. […]
as §3, §4

NR1A/NR2C NMDA receptor = NR1A/NR2C NMDA receptor (Rattus norvegicus, UniProt P35439+Q00961); experiment: Electrophysiological assay, cloned NMDA receptor subunits expressed in Xenopus oocytes (1A/2C); assay type: cell-based; settings: read-out: Subunits (IC50 (μM)) 1A/2C, mean IC50, inhibition of NMDA-activated membrane current responses, glutamate 100 μM + glycine
Chain of NR1A/NR2C NMDA receptor (Q00961 20-1237, other chains not shown): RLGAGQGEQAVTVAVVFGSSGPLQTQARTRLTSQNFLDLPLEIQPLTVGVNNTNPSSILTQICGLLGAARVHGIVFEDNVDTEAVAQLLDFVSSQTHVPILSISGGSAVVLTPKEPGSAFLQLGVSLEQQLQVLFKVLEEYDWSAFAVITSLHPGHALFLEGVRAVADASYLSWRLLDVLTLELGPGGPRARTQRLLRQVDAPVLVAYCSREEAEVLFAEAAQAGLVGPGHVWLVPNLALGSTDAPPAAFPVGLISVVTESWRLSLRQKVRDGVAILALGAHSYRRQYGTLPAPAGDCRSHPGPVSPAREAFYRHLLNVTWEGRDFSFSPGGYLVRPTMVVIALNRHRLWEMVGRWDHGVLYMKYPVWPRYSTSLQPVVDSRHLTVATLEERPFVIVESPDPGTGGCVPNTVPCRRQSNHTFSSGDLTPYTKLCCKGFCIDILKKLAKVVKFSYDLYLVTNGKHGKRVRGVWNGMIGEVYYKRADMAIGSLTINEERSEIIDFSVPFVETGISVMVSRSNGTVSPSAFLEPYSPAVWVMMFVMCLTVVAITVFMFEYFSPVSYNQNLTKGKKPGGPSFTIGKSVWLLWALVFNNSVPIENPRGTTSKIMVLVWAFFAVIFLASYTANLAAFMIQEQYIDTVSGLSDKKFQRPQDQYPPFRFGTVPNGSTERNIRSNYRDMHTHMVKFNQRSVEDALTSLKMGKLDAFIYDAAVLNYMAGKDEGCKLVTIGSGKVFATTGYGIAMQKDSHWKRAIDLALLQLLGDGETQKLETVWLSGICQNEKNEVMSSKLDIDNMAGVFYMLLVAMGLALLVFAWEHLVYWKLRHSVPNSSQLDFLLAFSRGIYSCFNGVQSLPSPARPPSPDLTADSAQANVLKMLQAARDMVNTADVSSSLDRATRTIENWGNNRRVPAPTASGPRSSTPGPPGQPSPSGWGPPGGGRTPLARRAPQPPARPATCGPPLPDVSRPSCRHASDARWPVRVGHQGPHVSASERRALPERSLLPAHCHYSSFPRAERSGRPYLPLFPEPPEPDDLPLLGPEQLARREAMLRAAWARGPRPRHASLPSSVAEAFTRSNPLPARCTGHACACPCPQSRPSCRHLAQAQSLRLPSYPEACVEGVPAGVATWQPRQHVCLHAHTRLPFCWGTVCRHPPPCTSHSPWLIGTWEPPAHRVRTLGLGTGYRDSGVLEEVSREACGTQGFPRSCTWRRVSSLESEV
Description: as §1, §2, §3, §4

NR1A/NR2D NMDA receptor = NR1A/NR2D NMDA receptor (Rattus norvegicus, UniProt P35439+Q62645); experiment: Electrophysiological assay, cloned NMDA receptor subunits expressed in Xenopus oocytes (1A/2D); assay type: cell-based; settings: read-out: Subunits (IC50 (μM)) 1A/2D, mean IC50, inhibition of NMDA-activated membrane current responses, glutamate 100 μM + glycine
Description: as §1, §2, §3, §4

[2] = mean IC50, inhibition of NMDA-activated membrane current responses, glutamate 100 μM + glycine, read-out: Subunits (IC50 (μM)) 1A/2B

For Nc1cccc(C#CCCN2CCC(O)(c3ccc(Cl)cc3)CC2)c1 [Ex. 8, 1-[4-(3-Aminophenyl)-3-butynyl]-4-hydroxy-4-(4-chlorophenyl)piperidine], the ED50 [1] was 10 mg/kg and the “activity against maximal electroshock (MES)” value (“activity” for short) [1] was “potent activity”.
Nc1cccc(C#CCCN2CC=C(c3ccccc3)CC2)c1 [Ex. 14, 1-[4-(5-Aminophenyl)-3-butynyl]-4-phenyl-1,2,5,6-tetrahydropyridine] gave an IC50 (NR1A/NR2A NMDA receptor; read-out: Subunits (IC50 (μM)) 1A/2A, mean IC50, inhibition of NMDA-activated membrane current responses, glutamate 100 μM + glycine) of 40 µM, an IC50 (NR1A/NR2B NMDA receptor; read-out: Subunits (IC50 (μM)) 1A/2B, mean IC50, inhibition of NMDA-activated membrane current responses, glutamate 100 μM + glycine) of 30 µM and an IC50 (NR1A/NR2C NMDA receptor) of over 100 µM. The IC50 (NR1A/NR2D NMDA receptor) was over 100 µM.
With C(#Cc1ccccc1)CCN1CCC(Cc2ccccc2)CC1 [Ex. 18, 4-Benzyl-1-(4-phenyl-3-butynyl)piperidine] the ED50 [1] was 3.5 mg/kg and the “activity” value [1] was “potent activity”.
For CCCCNC(=N)Nc1cccc(C#CCCN2CCC(O)(c3ccc(Cl)cc3)CC2)c1 [Ex. 28, N-n-Butyl-N′-(3-(4-(4-(4-chlorophenyl)-4-hydroxy)piperidinyl)butynyl)phenylguanidine], the ED50 [1] was 10 mg/kg, the “activity” value [1] was “potent activity” and the melting point was 98 to 100 °C.
With Nc1ccc(C#CCCN2CCC(Cc3ccccc3)CC2)cc1 [Ex. 30, 1-(4-(4-Aminophenyl)-3-butynyl)-4-benzylpiperidine] the ED50 [1] was 1.8 mg/kg and the “activity” value [1] was “potent activity”.
In the case of Cc1ccc(CC2CCN(CCC#Cc3ccc(N)cc3)CC2)cc1 [Ex. 39, 4-{4-[4-(4-Methyl-benzyl)-piperidin-1-yl]-but-1-ynyl}-phenylamine], the ED50 [1] is reported as 2.5 mg/kg and the “activity” value [1] is reported as “potent activity”.
For O=[N+]([O-])c1ccc(C#CCCN2CCC(Cc3ccccc3)CC2)cc1 [Ex. 40, 4-Benzyl-1-[4-(4-nitro-phenyl)-but-3-ynyl]-piperidine], the IC50 (NR1A/NR2B NMDA receptor; [2]) was 5 µM.
In the case of Oc1ccc(C#CCCN2CCC(Cc3ccccc3)CC2)cc1 [Ex. 42, 4-[4-(4-Benzyl-piperidin-1-yl)-but-1-ynyl]-phenol], the ED50 [1] is reported as 2.5 mg/kg and the “activity” value [1] is reported as “potent activity”.
NCc1cccc(C#CCCN2CCC(Cc3ccccc3)CC2)c1 [Ex. 52, 3-[4-(4-Benzyl-piperidin-1-yl)-but-1-ynyl]-benzylamine] gave an IC50 (NR1A/NR2A NMDA receptor; mean IC50, inhibition of NMDA-activated membrane current responses, glutamate 100 μM + glycine, read-out: Subunits (IC50 (μM)) 1A/2A) of 15 µM.
In the case of CC(=O)Nc1ccc(C#CCCN2CCC(Cc3ccccc3)CC2)cc1 [Ex. 53, N-{4-[4-(4-Benzyl-piperidin-1-yl)-but-1-ynyl]-phenyl}-acetamide], the ED50 [1] is reported as 8 mg/kg and the “activity” value [1] is reported as “potent activity”.
For CNc1ccc(C#CCCN2CCC(Cc3ccccc3)CC2)cc1 [Ex. 54, {4-[4-(4-Benzyl-piperidin-1-yl)-but-1-ynyl]-phenyl}-methyl-amine], the ED50 [1] was 6.5 mg/kg and the “activity” value [1] was “potent activity”.
For NS(=O)(=O)c1ccc(C#CCCN2CCC(Cc3ccccc3)CC2)cc1 [Ex. 59, 4-[4-(4-Benzyl-piperidin-1-yl)-but-1-ynyl]-benzenesulfonamide], the ED50 [1] was over 5 mg/kg.
With Nc1ccc(C#CCN2CCC(Cc3ccccc3)CC2)cc1 [Ex. 63, 4-[3-(4-Benzyl-piperidin-1-yl)-prop-1-ynyl]-phenylamine] the IC50 (NR1A/NR2B NMDA receptor; [2]) was 12 µM.
In the case of Cc1ccc(CC2CCN(CCC#Cc3ccc(O)cc3)CC2)cc1 [Ex. 67, 4-{4-[4-(4-Methyl-benzyl)-piperidin-1-yl]-but-1-ynyl}-phenol], the ED50 [1] is reported as 6 mg/kg and the “activity” value [1] is reported as “potent activity”.
With Cc1ccc(CC2(O)CCN(CCC#Cc3ccc(N)cc3)CC2)cc1 [Ex. 77, 1-(1-(4-Aminophenyl)-1-butyn-4-yl)-4-hydroxy-4-(4-methylbenzyl)piperidine] the ED50 [1] was 0.4 mg/kg.

Reference: patent US6448270B1, “4-substituted piperidine analogs and their use as subtype selective NMDA receptor antagonists” (Warner-Lambert Company, priority 1995, dated 2002)
